According to US4395274A, “Microbicidal agent and its use” (Bayer Aktiengesellschaft, priority 1979, dated 1983):
Read-outs that look alike come from different tables or passages of the source.

Experiments:
[1] = as a formaldehyde depot substance; cited from earlier work
Trichoderma viride = assay: minimum inhibitory concentration (MIC) in agar culture media; synergism by Kull et al; type: cell-based; conditions: for X (synergism index by Kull et al): X=1 additivity, X>1 antagonism, X<1 synergism
Procedure: (§1) The MIC values of A and B are compared with the MIC values of mixtures A/B.
(§2) The synergism is determined according to the method described by Kull et al (F. C. Kull, P. C. Eismann, H. D. Sylvestrowicz, R. L. Mayer, Applied Microbiol. 9, 538 to 541, 1961). The following symbols apply here: [formula] X=1 denotes additivity X>1 denotes antagonism
(§3) Qa =concentration of compound A, which represents the MIC
(§4) Qb =concentration of compound B, which represents the MIC
(§5) QA =the amount of compound A in the concentration of A/B, which prevents the growth of microbes
(§6) QB =the amount of compound B in the concentration of A/B which prevents the growth of microbes.

Aspergillus niger = assay: as above; type: cell-based; conditions: for X (synergism index by Kull et al): X=1 additivity, X>1 antagonism, X<1 synergism
Procedure: as §1, §2, §3, §4, §5, §6

Chaetomium globosum = assay: as above; type: cell-based; conditions: for X (synergism index by Kull et al): X=1 additivity, X>1 antagonism, X<1 synergism
Procedure: as §1, §2, §3, §4, §5, §6

Coniophora cerebella = assay: as above; type: cell-based; conditions: for X (synergism index by Kull et al): X=1 additivity, X>1 antagonism, X<1 synergism
Procedure: as §1, §2, §3, §4, §5, §6

Alternaria tenuis = assay: as above; type: cell-based; conditions: for X (synergism index by Kull et al): X=1 additivity, X>1 antagonism, X<1 synergism
Procedure: as §1, §2, §3, §4, §5, §6

Pullularia pullulans = assay: as above; type: cell-based; conditions: for X (synergism index by Kull et al): X=1 additivity, X>1 antagonism, X<1 synergism
Procedure: as §1, §2, §3, §4, §5, §6

rats = conditions: comparison compound; cited from earlier work
[2] = system: Chaetomium globosum Kunze and Aspergillus niger; assay: mould resistance of soap-wrapping paper; conditions: 0.5% by weight of paper added to pulp
Procedure: (§7) Based on the weight of the paper (90 to 100 g/m^2) 0.5% of A/B=6/1 is homogeneously mixed under a pulp (density 1%, pH value 4.8) having the following composition:
The mould resistance and the antimicrobial activity of the soap-wrapping paper obtained in this manner is tested in the following way:
Circular paper test specimens (diameter 4 cm) are placed in a nutrient medium in Petri dishes, the medium having previously been infested with the test fungi Chaetomium globosum Kunze and Aspergillus niger.

fungus = assay: paper production: pulp feeding system, losses of active compound, effluent and discharged air; conditions: 0.5% by weight of paper added to the pulp
Procedure: as §7
If, however, as is customary, owing to the lack up until now of usable alternatives, 0.5% of sodium pentachlorophenolate (related to the weight of the paper) is added to the pulp, losses of active compound amounting to more than 50% occur (approx. 25% are found in the effluent and approx. 25% in the outgoing air).

[3] = A differs between Example 1 and Example 6

Row | SMILES | QA (amount of compound A in the concentration of A/B which prevents the growth of microbes) (Trichoderma viride; [3]) | X (synergism index by Kull et al) (Trichoderma viride) | MIC (Trichoderma viride; agar culture media) | QA (amount of compound A in the concentration of A/B which prevents the growth of microbes) (Aspergillus niger; [3]) | X (synergism index by Kull et al) (Aspergillus niger) | MIC (Aspergillus niger; agar culture media) | QA (amount of compound A in the concentration of A/B which prevents the growth of microbes) (Chaetomium globosum; [3]) | X (synergism index by Kull et al) (Chaetomium globosum) | MIC (Chaetomium globosum; agar culture media) | QA (amount of compound A in the concentration of A/B which prevents the growth of microbes) (Coniophora cerebella; [3]) | X (synergism index by Kull et al) (Coniophora cerebella) | MIC (Coniophora cerebella; agar culture media) [µg/mL] | X (synergism index by Kull et al) (Alternaria tenuis) | MIC (Alternaria tenuis; agar culture media) [µg/mL] | QA (amount of compound A in the concentration of A/B which prevents the growth of microbes) (Pullularia pullulans; [3]) | X (synergism index by Kull et al) (Pullularia pullulans) | MIC (Pullularia pullulans; agar culture media) | also measured
1 | CN1CSC(=S)N(C)C1 [3,5-dimethyl-tetrahydro-1,3,5-thiadiazine-2-thione] | – | – | – | – | – | – | – | – | – | – | – | – | – | – | – | – | – | stability [1]: only moderately stable
2 | Oc1ccc(Cl)cc1Cc1cc(Cl)ccc1O [A/B 100/0 (Example 1), (2,2'-dihydroxy-5,5'-dichloro)-diphenyl-methane] | 50 | 1 | 50 µg/mL | 20 | 1 | 20 µg/mL | 50 | 1 | 50 µg/mL | 10 | 1 | 10 | 1 | 20 | 20 | 1 | 20 µg/mL | MIC (Trichoderma viride; Trichoderma viride, A differs between Example 1 and Example 6, read-out: Qa (concentration of compound A, which represents the MIC)): 50 µg/mL; MIC (Aspergillus niger; Aspergillus niger, A differs between Example 1 and Example 6, read-out: Qa (concentration of compound A, which represents the MIC)): 20 µg/mL; MIC (Chaetomium globosum; Chaetomium globosum, A differs between Example 1 and Example 6, read-out: Qa (concentration of compound A, which represents the MIC)): 50 µg/mL; MIC (Coniophora cerebella; Coniophora cerebella, A differs between Example 1 and Example 6, read-out: Qa (concentration of compound A, which represents the MIC)): 10 µg/mL; QA (amount of compound A in the concentration of A/B which prevents the growth of microbes) (Alternaria tenuis): 20; MIC (Alternaria tenuis; Alternaria alternata, read-out: Qa (concentration of compound A, which represents the MIC)): 20 µg/mL; MIC (Pullularia pullulans; A differs between Example 1 and Example 6, read-out: Qa (concentration of compound A, which represents the MIC)): 20 µg/mL
3 | Oc1ccccc1-c1ccccc1 [A/B 100/0 (Example 6), 2-hydroxy-diphenyl] | 75 | 1 | 75 µg/mL | 50 | 1 | 50 µg/mL | 50 | 1 | 50 µg/mL | 50 | 1 | 50 | – | – | 50 | 1 | 50 µg/mL | MIC (Trichoderma viride; Trichoderma viride, read-out: Qa (concentration of compound A, which represents the MIC)): 75 µg/mL; MIC (Aspergillus niger; Aspergillus niger, read-out: Qa (concentration of compound A, which represents the MIC)): 50 µg/mL; MIC (Chaetomium globosum; Chaetomium globosum, read-out: Qa (concentration of compound A, which represents the MIC)): 50 µg/mL; MIC (Coniophora cerebella; Coniophora cerebella, read-out: Qa (concentration of compound A, which represents the MIC)): 50 µg/mL; MIC (Pullularia pullulans; read-out: Qa (concentration of compound A, which represents the MIC)): 50 µg/mL
4 | COC(=O)Nc1nc2ccccc2[nH]1 [B, benzimidazolyl-methyl-carbamate] | – | 1 | 2,5 mg/l | – | 1 | 2,5 mg/l | – | 1 | 0,4 mg/l | – | 1 | 2000 | 1 | 5000 | – | 1 | 0,25 mg/l | QB (amount of compound B in the concentration of A/B which prevents the growth of microbes) (Trichoderma viride): 2,5; MIC (Trichoderma viride; Trichoderma viride, read-out: Qb (concentration of compound B, which represents the MIC)): 2.5 µg/mL; QB (amount of compound B in the concentration of A/B which prevents the growth of microbes) (Aspergillus niger): 2,5; MIC (Aspergillus niger; Aspergillus niger, read-out: Qb (concentration of compound B, which represents the MIC)): 2.5 µg/mL; QB (amount of compound B in the concentration of A/B which prevents the growth of microbes) (Chaetomium globosum): 0,4; MIC (Chaetomium globosum; Chaetomium globosum, read-out: Qb (concentration of compound B, which represents the MIC)): 0.4 µg/mL; QB (amount of compound B in the concentration of A/B which prevents the growth of microbes) (Coniophora cerebella): 2000; MIC (Coniophora cerebella; Coniophora cerebella, read-out: Qb (concentration of compound B, which represents the MIC)): 2000 µg/mL; QB (amount of compound B in the concentration of A/B which prevents the growth of microbes) (Alternaria tenuis): 5000; MIC (Alternaria tenuis; Alternaria alternata, read-out: Qb (concentration of compound B, which represents the MIC)): 5000 µg/mL; QB (amount of compound B in the concentration of A/B which prevents the growth of microbes) (Pullularia pullulans): 0,25; MIC (Pullularia pullulans; read-out: Qb (concentration of compound B, which represents the MIC)): 0.25 µg/mL
5 | [Na+].[O-]c1c(Cl)c(Cl)c(Cl)c(Cl)c1Cl [sodium pentachlorophenolate] | – | – | – | – | – | – | – | – | – | – | – | – | – | – | – | – | – | LD50 oral (rats): 270 mg/kg; mould-resistance of paper [2]: poor mould-resistance; discharged air problems (fungus): disagreable odours, mucosal irritation; effluent toxicity (fungus): the effluent is toxic to fish
